# Where a name gives a salt, the structure may show the parent alone. Read-outs that look alike come from different tables or passages of the source.
# Columns and labels:
# [1] = APCC in vivo screen: blood cholesterol in male Sprague-Dawley rats on high fat, high cholesterol diet with 0.5% cholic acid; conditions: high fat high cholesterol diet overnight; for % Change (mg/dl) (cholesterol) / change in vivo at 30 mg/kg: single dose 30 mg/kg; for % Change (mg/dl) (cholesterol): 30 mg/kg
# From the text: In one in vivo screen designated APCC, male Sprague-Dawley rats (200 to 225 g) were randomly divided into treatment groups and dosed at 4 PM with either vehicle (CMC/Tween) or suspensions of compounds in vehicle. The normal chow diet was then replaced with a high fat, high cholesterol diet with 0.5% cholic acid. The rats consumed this diet ad libitum during the night and were sacrificed at 8 AM to obtain blood samples for cholesterol analysis using standard procedures. Statistical differences between mean cholesterol values for the same vehicle were determined using analysis of variance followed by Fisher's least significant test. The compounds were dosed at 30 mg/kg unless otherwise noted.
# [2] = target: T1, acyl-CoA: cholesterol acyltransferase (ACAT) (Oryctolagus cuniculus, UniProt G1SFD9); experiment: in vitro ACAT inhibition (IAI): formation of radiolabeled cholesterol oleate from radiolabeled oleic acid in rabbit intestinal microsomes; format: biochemical
# T1 construct: tissue preparation containing rabbit intestinal microsomes; from tissue; host or cells: rabbit intestinal microsomes
# T1 sequence (G1SFD9 1-524): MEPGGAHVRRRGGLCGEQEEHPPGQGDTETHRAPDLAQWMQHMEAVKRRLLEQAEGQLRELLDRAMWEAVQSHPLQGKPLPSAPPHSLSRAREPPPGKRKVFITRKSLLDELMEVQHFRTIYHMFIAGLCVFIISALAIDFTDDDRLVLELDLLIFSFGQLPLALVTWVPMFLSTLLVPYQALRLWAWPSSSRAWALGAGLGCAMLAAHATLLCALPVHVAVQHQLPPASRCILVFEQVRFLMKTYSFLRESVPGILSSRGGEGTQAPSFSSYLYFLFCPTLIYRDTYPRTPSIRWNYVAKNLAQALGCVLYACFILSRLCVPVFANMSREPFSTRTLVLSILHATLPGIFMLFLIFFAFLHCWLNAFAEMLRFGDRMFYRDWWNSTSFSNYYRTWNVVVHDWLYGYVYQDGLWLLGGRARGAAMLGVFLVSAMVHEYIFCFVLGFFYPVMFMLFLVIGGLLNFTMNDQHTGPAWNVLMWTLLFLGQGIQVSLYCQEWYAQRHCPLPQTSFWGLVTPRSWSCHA
# Protocol: The ability of representative compounds of the present invention to inhibit ACAT was measured using an in vitro test more fully described in F. J. Field and R. G. Salone, Biochemica et Biophysica 712:557-570 (1982). The test assesses the ability of a test compound to inhibit the acylation of cholesterol by oleic acid by measuring the amount of radiolabeled cholesterol oleate formed from radiolabeled oleic acid in a tissue preparation containing rabbit intestinal microsomes.
# [3] = rabbit intestinal microsomes, read-out: IAI IC50
# [4] = Rattus norvegicus, read-out: % Change (mg/dl) (cholesterol)
Structure (SMILES),"IC50 [2, 3]","change in vivo at 30 mg/kg [1, 4]",also measured
"CCCCN(CCCC)S(=O)(=O)NC(=O)Oc1c(C(C)C)cccc1C(C)C [Example 11, 2,6-Bis(1-methylethyl)phenyl[(dibutylamino)sulfonyl]carbamate]",1.9 µM,,% Change (mg/dl) (cholesterol) ([1]; rat): -57 % Change (mg/dl)
"CC(C)c1cccc(C(C)C)c1OC(=O)NS(=O)(=O)N1CCOCC1 [Example 50, 2,6-Bis(1-methylethyl)-phenyl ester(4-morpholinylsulfonyl)-carbamic acid]",> 100 µM,-14%,
"CC(C)c1cccc(C(C)C)c1NS(=O)(=O)NC(=O)Oc1c(-c2ccccc2)cccc1-c1ccccc1 [Example 56, [1,1':3', 1""-terphenyl]-2'-yl[[[2,6-bis(1-methylethyl)phenyl]amino]sulfonyl]carbamat]",> 25 µM,-39%,
"CC(C)c1cccc(C(C)C)c1OC(=O)NS(=O)(=O)N1CCN(C)CC1 [Example 53, 2,6-Bis(1-methylethyl)-phenyl ester, monohydrochloride[(4-methyl-1-piperazinyl)-sulfonyl] carbamic acid]",,,"change in vivo at 30 mg/kg ([1]; rat, read-out: % Change (mg/dl) (cholesterol)): -21%; IC50 [2]: > 100 µM"
"COC(=O)NS(=O)(=O)Nc1c(C(C)C)cccc1C(C)C [Example 1, Methyl [[2,6-bis(1-methylethyl)phenylamino]sulfonyl]carbamate]",> 100 µM,,
"Cc1cc(C(C)(C)C)c(OC(=O)NS(=O)(=O)N(C)CCc2ccccc2)c(C(C)(C)C)c1 [Example 27, 2,6-Bis(1,1-dimethylethyl)-4-methylphenyl[[methyl(2-phenylethyl)amino]sulfonyl]carbamate]",18.9 µM,-29%,
"CC(C)c1cccc(C(C)C)c1OC(=O)NS(=O)(=O)N1CCCCC1 [Example 51, 2,6-Bis(1-methylethyl)-phenyl ester(1-piperidinylsulfonyl)-carbamic acid]",> 100 µM,-11%,
"Cc1cc(C(C)(C)C)c(OC(=O)NS(=O)(=O)N(C)CCc2ccccn2)c(C(C)(C)C)c1 [Example 32, 2,6-Bis(1,1-dimethylethyl)-4-methylphenyl[[[methyl 2-(2-pyridinyl)ethyl]amino]sulfonyl]carbamate, hydrochloride salt]",31 µM,,"% Change (mg/dl) (cholesterol) ([1]; rat, hydrochloride salt): -10 % Change (mg/dl)"
"Cc1cc(C(C)(C)C)c(OC(=O)NS(=O)(=O)NCC(c2ccccc2)c2ccccc2)c(C(C)(C)C)c1 [Example 20, 2,6-Bis(1,1-dimethylethyl)-4-methylphenyl[[(2,2-diphenylethyl)amino]sulfonyl]carbamate]",,,"change in vivo at 50 mg/kg ([1]; Rattus norvegicus, single dose 50 mg/kg (*), read-out: % Change (mg/dl) (cholesterol)): -54%"
"CCCCCCCCN(C)S(=O)(=O)NC(=O)Oc1c(C(C)C)cccc1C(C)C [Example 40, 2,6-Bis(1-methylethyl)phenyl[(methyloctylamino)sulfonyl]carbamate]",,-60%,
